Reference: US20070082937A1, “Anti cancer combinations comprising a cox-2 inhibitor” (Cancer Research Technology Limited, priority 2003, published 2007)

Legend:
colon 38 tumours = assay: Tumour growth delay assay; format: in vivo, mice
Method: C57B1/6 mice from the Animal Resource Unit, University of Auckland, were bred and housed under conditions of constant temperature and humidity, with sterile bedding and food, according to institutional ethical guidelines. All mice were aged between 8 and 12 weeks.
DMXAA was synthesized as the sodium salt (Rewcastle et al., (1990) Journal of National Cancer Institute 82:528-529). DMXAA sodium salt was dissolved in neutral aqueous solution and 25 mg/kg, in a volume of 0.1 ml per 10 g body weight, was injected intraperitoneally (i.p.) into mice.
Vioxx™ (Sigma) was made up in neutral aqueous solution and 100 or 150 mg/kg, in a volume of 0.1 ml per 10 g body weight, was injected intraperitoneally (i.p.) into mice. […]
Colon 38 tumour fragments (˜1 mm^3) were implanted subcutaneously (s.c.) in anaesthetized (sodium pentobarbitone, 90 mg/kg) mice. […] Tumour-bearing mice were treated with drugs according to the administration schedule described before, and the tumours measured using calipers, at three day intervals thereafter. Tumour volumes were calculated as 0.52a^2b, where a and b are the minor and major axes of the tumour, respectively. The arithmetic means were calculated for each time point, counting cured tumours as zero volume. The growth delay was determined as the difference in the number of days required for the control versus treated tumours to increase four times in volume. […]

tumour blood flow = conditions: human tumours, well-tolerated doses, dynamic MRI; cited from earlier work

SMILES	mice cured (colon 38 tumours; DMXAA alone 25 mg/kg i.p., colon 38 tumours s.c. in mice, 6 mice)	tumour blood flow (tumour blood flow)	effect on the growth of colon 38 tumours (colon 38 tumours; Vioxx alone 150 mg/kg i.p., colon 38 tumours s.c. in C57Bl/6 mice)
Cc1ccc2c(=O)c3cccc(CC(=O)O)c3oc2c1C [DMXAA, 5,6-dimethylxanthenone-4-acetic acid]	None and no cure	significant reduction	
CS(=O)(=O)c1ccc(C2=C(c3ccccc3)C(=O)OC2)cc1 [Vioxx™, rofecoxib, reference compound]			no significant effect
